Assay results: PMC10649247, “Rapid Colloidal Gold Immunoassay for Pharmacokinetic Evaluation of Vancomycin in the Cerebrospinal Fluid and Plasma of Beagle Dogs” (Sensors (Basel, Switzerland), 2023)
Structures can show the parent of a compound that is named as a salt.

Assays:
[1] = system: VAN antibodies (monoclonal antibodies derived from mouse ascites); test: Colloidal gold competitive immunoassay test strip (calibration curve and cross-reactivity); assay type: binding; conditions: for CR (%) = [IC50 of VAN/IC50 of the tested compound] × 100%: cross-reactivity of the colloidal gold test strip; for IC50 (ng/mL), cross-reactivity test: compounds at 0, 0.1, 1, 10, 100, 1000 and 10,000 ng/mL
Method: Colloidal gold nanoparticles, integral for inducing a visible color change at the test line of the assay strips, were synthesized by boiling 100 mL of a 0.01% HAuCl4 aqueous solution, followed by the addition of 1% sodium citrate aqueous solution [46, 47, 48]. […] Subsequently, VAN antibodies were conjugated to these gold nanoparticles. The VAN antibodies used were monoclonal antibodies derived from mouse ascites with a molecular weight of 150 kD. They were purchased from Shenzhen KeJie Industrial Development Co., Ltd. (Shenzhen, China). The efficacy of this conjugation relied on a trifecta of forces: ionic attractions between the negatively charged gold particles and the positively charged proteins, hydrophobic interactions, and sulfur bonds, particularly from thiol groups that linked two regions of the Fc segment of the antibody to the gold surface.
A sequence of critical steps must be followed for fabricating colloidal gold immunochromatographic test strips. Initially, a substrate, typically comprising paper or a film, was precoated with antibodies specifically tailored for detecting the target molecule. Subsequently, colloidal gold nanoparticles were synthesized by reducing gold salts and coupled with antibodies. This coupling was facilitated by the combination of ionic, hydrophobic, and sulfur bond interactions. The resultant antibody-labeled colloidal gold solution was then applied to the designated test line area on the substrate. Then, a control line was established to validate the operational integrity of the strip. Following these applications, the strip underwent a drying process, was trimmed to manageable dimensions, and was hermetically sealed in protective packaging to mitigate the risk of environmental contamination.
The intensity of the color on the test line indicated the signal value. We quantified this signal using a smartphone camera in combination with the ImageJ software (Fiji ImageJ for Mac, 2.3.0 version). […] We used ImageJ to extract the gray values from lines drawn perpendicular to both the control and test lines. […] Therefore, the effective signal, represented as B, is determined by the absolute difference in gray value between the test line and its adjacent area.
The test line is coated with a competitive VAN–BSA antigen, and the control line is coated with […]. Upon application of the sample to the sample pad, the sample flows through the colloidal gold pad to interact with the gold-labeled antibodies. It then progresses through the test and control lines before being absorbed into the absorbent paper. The appearance of a visible line in the test area signifies a negative result for VAN (Figure 1(b1)). […] Regardless of the presence or absence of VAN, a red control line should always appear when the test is operating correctly. Otherwise, the results are invalid. Figure 1c depicts the four scenarios that may arise during testing.
Under optimized assay conditions, we used in-house-prepared VAN standard samples to validate the performance metrics of the test strips. The concentrations of the standard samples were 0, 1, 2, 4, 8, 16, 32, 64, 128, 256, 512, and 1024 ng/mL. For the analysis, we applied 4–5 drops of each sample onto the test strips and allowed them to air-dry for 10 min. We observed an inverse correlation between the VAN concentration and the test line signal intensity. We then proceeded to construct a calibration curve to elucidate the correlation between the optical signals (designated as B/B0) and the respective VAN concentrations. In this context, B represents the optical signals for each standard concentration of VAN, while B0 signifies the optical signal at a zero-concentration baseline. […]

[2] = Pharmacokinetic study of VAN in CSF of beagle dogs (LC-MS); assay type: in vivo; conditions: single intravenous dose 12 mg/kg, average of three dogs
Method: (§1) Animal Dosing and Sample Collection: The choice of using beagle dogs for the pharmacokinetic studies of VAN in CSF and plasma is driven by their physiological similarities to humans, which make them a suitable model for predicting human pharmacokinetics. Three male beagle dogs, each weighing approximately 11 kg and aged 10 months, were utilized for pharmacokinetic studies. Both the acquisition of the beagle dogs and the sample collection were conducted by Beijing Sinogenetic Biotechnology Co., Ltd. (Beijing, China). The animal protocols employed for this research were reviewed and approved by Beijing Sinogenetic Biotechnology Co., Ltd. (XNY-20230524001). The beagle dogs were anesthetized and subsequently administered a single intravenous dose of a pre-prepared 50 mg/mL VAN hydrochloride solution at a dosage level of 12 mg/kg, with the injection time lasting approximately 2–3 s. CSF and plasma samples were collected at predetermined time points: predose (0 min) and postdose at intervals of 5 min, 10 min, 30 min, 1 h, 2 h, 4 h, 8 h, and 24 h. […]
(§2) An HPLC–MS method was established to precisely quantify VAN levels in CSF and plasma samples collected from beagle dogs. […] The methodological rigor ensured a high degree of specificity and sensitivity in VAN quantification, effectively fulfilling the objectives of this study.

[3] = Pharmacokinetic study of VAN in plasma of beagle dogs (LC-MS); assay type: in vivo; conditions: single intravenous dose 12 mg/kg, average of three dogs
Method: as §1, §2

CR (%) = [IC50 of VAN/IC50 of the tested compound] × 100% [1] [%] | IC50 (ng/mL), cross-reactivity test ([1]; test strip) | Compound | time at which VAN concentration in CSF reaches its maximum [2] | LOD, concentration of VAN giving a 10% inhibition of the maximum absorbance ([1]; test strip calibration curve, read after 10 min, n = 3) [ng/mL] | inhibitory concentration 50% (IC50) from the calibration curve (B/B0 against VAN concentration) ([1]; test strip, standard samples 0-1024 ng/mL, read after 10 min, smartphone/ImageJ gray value, n = 3) [µg/mL] | peak concentration of VAN in plasma [3] [µg/mL] | concentration of VAN in plasma within ~4 h ([3]; ~4 h post dose)
<0.5 | >10^4 ng/mL | teicoplanin | – | – | – | – | –
<0.5 | >10^4 ng/mL | NCC[C@H](O)C(=O)N[C@@H]1C[C@H](N)[C@@H](O[C@H]2O[C@H](CN)[C@@H](O)[C@H](O)[C@H]2O)[C@H](O)[C@H]1O[C@H]1O[C@H](CO)[C@@H](O)[C@H](N)[C@H]1O [Amikacin, amikacin] | – | – | – | – | –
<0.5 | >10^4 ng/mL | C[C@@H](O)[C@H]1C(=O)N2C(C(=O)O)=C(S[C@@H]3CN[C@H](C(=O)N(C)C)C3)[C@H](C)[C@H]12 [Meropenem, meropenem] | – | – | – | – | –
<0.5 | >10^4 ng/mL | CN[C@H]1C(=O)N[C@@H]2Cc3ccc(cc3)Oc3cc4cc(c3O[C@@H]3O[C@H](C(=O)O)[C@@H](O)[C@H](O)[C@H]3NC(=O)CCCCCCCCC(C)C)Oc3ccc(cc3Cl)[C@@H](O)[C@@H]3NC(=O)[C@H](NC(=O)[C@@H]4NC(=O)[C@@H](NC2=O)c2cc(cc(O)c2Cl)Oc2cc1ccc2O)c1ccc(O)c(c1)-c1c(O[C@H]2O[C@H](CO)[C@@H](O)[C@H](O)[C@@H]2O)cc(O)cc1[C@@H](C(=O)NCCCN(C)C)NC3=O [Dalbavancin, dalbavancin] | – | – | – | – | –

Compound | CR (%) = [IC50 of VAN/IC50 of the tested compound] × 100% [1] [%] | IC50 (ng/mL), cross-reactivity test ([1]; test strip) | time at which VAN concentration in CSF reaches its maximum [2] | LOD, concentration of VAN giving a 10% inhibition of the maximum absorbance ([1]; test strip calibration curve, read after 10 min, n = 3) [ng/mL] | inhibitory concentration 50% (IC50) from the calibration curve (B/B0 against VAN concentration) ([1]; test strip, standard samples 0-1024 ng/mL, read after 10 min, smartphone/ImageJ gray value, n = 3) [µg/mL] | peak concentration of VAN in plasma [3] [µg/mL] | concentration of VAN in plasma within ~4 h ([3]; ~4 h post dose)
CN[C@H](CC(C)C)C(=O)N[C@H]1C(=O)N[C@@H](CC(N)=O)C(=O)N[C@H]2C(=O)N[C@H]3C(=O)N[C@H](C(=O)N[C@H](C(=O)O)c4cc(O)cc(O)c4-c4cc3ccc4O)[C@H](O[C@H]3C[C@](C)(N)[C@@H](O)[C@H](C)O3)c3ccc(c(Cl)c3)Oc3cc2cc(c3O[C@@H]2O[C@H](CO)[C@@H](O)[C@H](O)[C@H]2O[C@H]2C[C@](C)(NCc3ccc(-c4ccc(Cl)cc4)cc3)[C@@H](O)[C@H](C)O2)Oc2ccc(cc2Cl)[C@H]1O [Oritavancin, oritavancin] | <0.5 | >10^4 ng/mL | – | – | – | – | –
CN[C@H](CC(C)C)C(=O)N[C@H]1C(=O)N[C@@H](CC(N)=O)C(=O)N[C@H]2C(=O)N[C@H]3C(=O)N[C@H](C(=O)N[C@H](C(=O)O)c4cc(O)cc(O)c4-c4cc3ccc4O)[C@H](O)c3ccc(c(Cl)c3)Oc3cc2cc(c3O[C@@H]2O[C@H](CO)[C@@H](O)[C@H](O)[C@H]2O[C@H]2C[C@](C)(N)[C@H](O)[C@H](C)O2)Oc2ccc(cc2Cl)[C@H]1O [VAN, Vancomycin hydrochloride] | 100 | – | ~ 2 h | 10.3 | 0.0445 | 40 | below 1 µg/mL
CCCCCCCCCCNCCN[C@@]1(C)C[C@H](O[C@H]2[C@H](Oc3c4cc5cc3Oc3ccc(cc3Cl)[C@@H](O)[C@@H](NC(=O)[C@@H](CC(C)C)NC)C(=O)N[C@@H](CC(N)=O)C(=O)N[C@H]5C(=O)N[C@H]3C(=O)N[C@H](C(=O)N[C@H](C(=O)O)c5cc(O)c(CNCP(=O)(O)O)c(O)c5-c5cc3ccc5O)[C@H](O)c3ccc(c(Cl)c3)O4)O[C@H](CO)[C@@H](O)[C@@H]2O)O[C@@H](C)[C@H]1O [Telavancin, telavancin] | <0.5 | >10^4 ng/mL | – | – | – | – | –
